Where “and” joins values, the source holds several entries; their conditions need not be identical. Equal entries are not always repeated.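 These data come from cells grown in 96-well plates and exposed to compound for 48 hours at five concentrations. GI50 is the concentration that inhibits growth by half. Definition used: TGI = concentration required for complete inhibition of growth.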
Key:
Experiment in all cases: NCI-60 cell line screen, 48 h
UO-31 renal = test system: UO-31 renal
UACC-62 melanoma = test system: UACC-62 melanoma
IGROV1 ovarian = test system: IGROV1 ovarian
ACHN renal = test system: ACHN renal
786-0 renal = test system: 786-0 renal
MOLT-4 leukemia = test system: MOLT-4 leukemia
CAKI-1 renal = test system: CAKI-1 renal
HCT-15 colon = test system: HCT-15 colon
MDA-MB-231 breast = test system: MDA-MB-231 breast
PC-3 prostate = test system: PC-3 prostate
SK-MEL-2 melanoma = test system: SK-MEL-2 melanoma
LOX IMVI melanoma = test system: LOX IMVI melanoma

SMILES	TGI (UO-31 renal) [µM]	TGI (UACC-62 melanoma) [µM]	TGI (IGROV1 ovarian) [µM]	TGI (ACHN renal) [µM]	TGI (786-0 renal) [µM]	TGI (MOLT-4 leukemia) [µM]	TGI (CAKI-1 renal) [µM]	TGI (HCT-15 colon) [µM]	TGI (MDA-MB-231 breast) [µM]	TGI (PC-3 prostate) [µM]	TGI (SK-MEL-2 melanoma) [µM]	TGI (LOX IMVI melanoma) [µM]	GI50 (UO-31 renal) [µM]	GI50 (UACC-62 melanoma) [µM]	GI50 (IGROV1 ovarian) [µM]	GI50 (MOLT-4 leukemia) [µM]	GI50 (LOX IMVI melanoma)	GI50 (CAKI-1 renal) [µM]	GI50 (HCT-15 colon)
CCn1c(=O)c2c3cc(O)ccc3oc2c2ccc(O)cc21	46.6	> 100	> 100	66.1	> 100	> 100	> 100	> 100	> 100	> 100									
COc1ccc(CNc2nc3ccc(C(F)(F)F)cc3nc2-c2ccccc2)cc1OC	> 100	> 100		> 100		> 100		> 100			> 100	> 100							
C(=Nc1ccc(-c2nc3ccccc3s2)cc1)c1ccco1	> 100	> 100	> 100	> 100	> 100	> 100	> 100	> 100		> 100	> 100	> 100							
O=C1NC(=S)NC(=O)C1C(c1ccccc1[N+](=O)[O-])C1C(=O)NC(=S)NC1=O	> 100	> 100		> 100	> 100	> 100	> 100	> 100	> 100	> 100	> 100	> 100							
Cc1cccc(N(CCC#N)S(=O)(=O)c2ccccc2)c1	> 100	> 100	> 100	> 100	> 100	> 100	> 100		> 100	> 100	> 100	> 100							
Cc1ccc(C(=O)Nc2ccc(CP(=O)(O)O)cc2)cc1NC(=O)c1cccc(NC(=O)Nc2cccc(C(=O)Nc3cc(C(=O)Nc4ccc(CP(=O)(O)O)cc4)ccc3C)c2)c1	> 100	> 100	> 100	> 100	> 100		> 100	> 100	> 100	> 100	> 100	> 100							
CC(C)/C(Cl)=N\OC(=O)NNc1ccccc1		> 100	> 100	34.1	> 100	17.7	28.2	> 53.7	> 94.2	> 100	> 100	36.9							
COc1cc([C@@H]2c3cc4c(cc3C[C@H]3COC(=O)[C@@H]32)OCO4)cc(OC)c1OC	13.2	> 50	> 50			0.12	1.72	> 2.32			> 2.32	> 50	0.00501	0.0028	0.00618	0.00428	0.00281 µM and 0.005 µM	0.00463	0.00318 µM and 0.0109 µM
CCOC(=O)c1c(N)n(-c2ccccc2)c(=S)n(-c2ccccc2)c1=O	> 100	> 100	> 100	> 100	> 100	> 100		> 100	> 100		> 100	> 100							
c1ccc(N=c2snc(-c3ccccc3)s2)cc1	> 100	> 100	> 100	> 100	> 100	> 100	> 100	> 100			> 100								
